The target in experiment [1] is T1, Cx43 HCs (Homo sapiens, UniProt P17302).
T1 construct: expressed in transfected cells
As to the kind of experiment: Cx43-dependent growth complementation assay in E. coli LB2003. It counts as cell-based. The conditions noted are these: for Cx43/Cx26 Selectivity: IC50 Cx26/IC50 Cx43.

Experiment [2] addresses T2, human Cx26 HCs (Homo sapiens, UniProt P29033).
T2 construct: expressed in transfected cells; host or cells: E. coli LB2003 (carrying pREP4), transformed with pQE-Cx26, IPTG-induced
As to the kind of experiment: Cx26-dependent growth complementation assay in E. coli LB2003. It counts as cell-based. The method, then: These derivatives were prepared by sequential benzylation and methylation followed by reduction of azido groups or hydrogenolysis of the Bn. […] Connexin HC inhibition was conducted using a bacteria-based assay of HC function^39. In this assay, Cx26 HCs are expressed in E. coli LB2003 cells, which lack three major K^+ uptake systems (Kdp, Kup and Trk), and as a result they cannot grow in low-[K^+] media^39-41. However, growth of this E. coli strain in low-[K^+] medium can be rescued by expression of K^+-permeable channels such as connexin HCs^39, 42-43. Under the conditions of the assay (LB2003 cells expressing HCs and grown in low-K^+ medium), inhibition of the HCs reduces or abolishes growth^39, 42-43. This is a simple assay where bacterial growth in multi-well plates can be followed by measuring the absorbance at 600 nm (OD600)^29.
LB2003 cells generously provided by Dr. E. P. Bakker (Osnabruk University, Osnabruk, Germany) were transformed with the plasmid pQE-Cx26 (human Cx26 into pQE60) and pREP4. […] LB2003 cells cannot grow in low-[K^+] media because of insufficient K^+ uptake for growth due to the knockout of three key K^+ transporters (Atrk, Akup, Akdp strain)^2-4. Details and validation of the growth complementation assay have been published recently^2. In brief, competent LB2003 containing the pREP4 plasmid were transformed with pQE-Cx26. These cells were grown overnight in Luria-Bertani medium (BD, Franklin Lakes, NJ, USA) supplemented with 100 mM KCl (to allow growth) and 0.4 mg/mL ampicillin, and then washed four times with NLM (see below), to remove residual K^+ from the Luria-Bertani medium. The washed cells were resuspended in complementation growth medium to an OD600 of 0.2. NLM contained 46 mM Na2HPO4, 23 mM NaH2PO4, 8 mM (NH4)2SO4, 0.4 mM MgSO4, 0.012 mM FeSO4, 1 mM sodium citrate, 44 mM glucose and 0.006 mM thiamine hydrochloride, pH 7.0. KLM had the same composition that NLM except for the equimolar replacement of Na^+ with K^+. For growth complementation we used NLM+4 mM KCl, and Cx26 expression was induced with 0.5 mM IPTG at the time of dilution to OD600=0.2. For the assay, the cells were seeded in 96-well plates and were incubated at 30° C., with shaking at 500 rpm. OD600 was measured after 18-h incubation in a plate reader. The initial OD600=0.2 was subtracted for growth calculations. Data are presented as means±SEM. Statistically significant differences were calculated by the Student t-test for unpaired data. Data were obtained from at least 3 independent experiments, with 3 repeats per experiment.

[3] abbreviates: 4″,6″-disubstituted AKs, Table 5, read-out: Cx43 IC50.
[4] abbreviates: K46 members, the 20th table, read-out: IC50 (μM) against Cx43.
[5] abbreviates: first Table 2, read-out: IC50, inhibition of Cx26 by synthetic AGs.
[6] abbreviates: the 12th table, Hill fit, mean ± SEM, some n = 1, read-out: Cx43 IC50.
[7] abbreviates: 4″,6″-disubstituted AKs, Table 5, read-out: Cx26 IC50.
The mark [8] stands for this setting: K46 members, the 20th table, read-out: IC50 (μM) against Cx26.
Where [9] appears, read: K members, the 21st table, read-out: Cx43 % inhibition.
Setting [10] is: Table 3, read-out: Cx243% inhibition.
[11] abbreviates: Table 6, read-out: Cx43 (% inhibition).

Where two headings read alike, the source gives them in different places.

T1 sequence (P17302 whole entry): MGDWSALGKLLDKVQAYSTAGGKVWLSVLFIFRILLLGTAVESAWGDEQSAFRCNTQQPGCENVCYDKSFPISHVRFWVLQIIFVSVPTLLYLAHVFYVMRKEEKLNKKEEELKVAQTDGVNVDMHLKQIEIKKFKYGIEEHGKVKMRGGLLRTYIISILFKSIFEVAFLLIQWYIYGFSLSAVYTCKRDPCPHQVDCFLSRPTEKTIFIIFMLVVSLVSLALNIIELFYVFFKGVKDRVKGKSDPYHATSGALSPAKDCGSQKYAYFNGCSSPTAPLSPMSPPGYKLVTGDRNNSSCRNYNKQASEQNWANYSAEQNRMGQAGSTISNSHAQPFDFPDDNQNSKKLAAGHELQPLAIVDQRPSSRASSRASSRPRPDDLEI

Consider `Cc1ccc(COCC2OC(OC3C(N)CC(N)C(OC4OC(CN)C(O)C(O)C4O)C3O)C(O)C(N)C2OCc2ccc(C)cc2)cc1` (centres unmarked) [Compound 11, 4″,6″-Di-O-(4-methylbenzyl) kanamycin], for which the IC50 in experiment [1] (setting [3]) came to 3.1 ± 0.9 µM; in experiment [1] (setting [4]), 3.1 ± 0.9 µM; in experiment [1] (the 13th table, read-out: Cx43 IC50), 3.1 ± 0.9 µM; in experiment [2] (setting [5]), 4.3 ± 0.4 µM. For the same compound, the “Cx43/Cx26 Selectivity” value in experiment [1] (Table 5) was determined as 1.39. The “Cx43 Imax” value in experiment [1] (the 13th table) is listed as 80.4 ± 6%. For the same compound, the “Cx26 Imax” value in experiment [2] (the 13th table) amounted to 102 ± 3%.
In the case of `NCC1OC(OC2C(N)CC(N)C(OC3OC(COCc4ccc(Cl)cc4)C(OCc4ccc(Cl)cc4)C(N)C3O)C2O)C(O)C(O)C1O` (centres unmarked) [Compound 12, 4″,6″-Di-O-(4-chlorobenzyl) kanamycin], the IC50 came out at 17.1 ± 1.7 µM in experiment [1] (setting [3]); 20.3 µM in experiment [1] (setting [4]); 20.3 µM in experiment [1] (setting [6]); 2.5 ± 0.6 µM in experiment [2] (setting [7]); 2.5 ± 0.6 µM in experiment [2] (setting [8]); 2.5 ± 0.6 µM in experiment [2] (setting [5]). For the same compound, in experiment [1] (Table 5), the “Cx43/Cx26 Selectivity” value is 0.15. In addition, the “Cx43 Imax (maximal inhibition)” value in experiment [1] (the 12th table, Hill fit) was determined as 133%.
`NC[C@H]1O[C@H](O[C@H]2[C@H](O)[C@@H](O[C@@H]3O[C@H](COCc4ccc(F)cc4)[C@@H](OCc4ccc(F)cc4)[C@H](N)[C@H]3O)[C@H](N)C[C@@H]2N)[C@H](O)[C@@H](O)[C@@H]1O` [Compound 13, 4″,6″-Di-O-(4-flurobenzyl) kanamycin]: the concentration for half-maximal inhibition (IC50) in experiment [1] (setting [3]) came out at 26.6 ± 7.8 µM; in experiment [1] (setting [4]), 26.6 ± 7.8 µM; in experiment [1] (setting [6]), 26.6 ± 7.8 µM; in experiment [2] (setting [7]) it was 8.1 ± 0.5 µM; in experiment [2] (setting [8]), 8.1 ± 0.5 µM; in experiment [2] (setting [5]), 8.1 ± 0.5 µM. Moreover, the “Cx43/Cx26 Selectivity” value in experiment [1] (Table 5) turned out to be 0.30. For the same compound, the “Cx43 Imax (maximal inhibition)” value in experiment [1] (the 12th table, Hill fit) is 110 ± 33%.
`NCC1OC(OC2C(N)CC(N)C(OC3OC(COCc4ccc5ccccc5c4)C(OCc4ccc5ccccc5c4)C(N)C3O)C2O)C(O)C(O)C1O` (centres unmarked) [Compound 14, 4″,6″-Di-O-(2-naphthalenmethyl) kanamycin]: the values for the half-inhibitory concentration (IC50) in experiment [1] (setting [3]) and in experiment [2] (setting [5]) were 6.2 ± 4.4 µM and 4.9 ± 0.2 µM, respectively. In addition, the “Cx43/Cx26 Selectivity” value in experiment [1] (Table 5) came out at 1.07.
Turning to `Cc1ccc(S(=O)(=O)OC[C@H]2OC(OC3C(N)CC(N)C(O[C@H]4OC(CN)[C@@H](O)C(O)C4O)[C@@H]3O)[C@H](O)C(N)C2O)cc1` (some centres unmarked) [Compound K19], the results for the inhibition at 15 µM in experiment [1] (setting [9]), in experiment [1] (setting [10]) and in experiment [2] (Table 3) were 38.1 ± 2.8%, 38.1 ± 2.8% and 26.8 ± 1.7%, respectively. For the same compound, the figures for the inhibition at 50 µM in experiment [1] (setting [9]), in experiment [1] (setting [10]) and in experiment [2] (Table 3) were 51 ± 8.8%, 51 ± 8.8% and 49.2 ± 5.5%, respectively.
With `NCC1O[C@H](O[C@@H]2C(N)C[C@@H](N)C(O[C@H]3OC(COc4ccc(-c5nc6ccccc6[nH]5)cc4)[C@@H](O)C(N)C3O)C2O)C(O)C(O)[C@@H]1O` (some centres unmarked) [Compound K30], in experiment [1] (setting [9]), the inhibition at 15 µM was 8.9% and the inhibition at 50 µM stood at 89.4%. For the same compound, the IC50 in experiment [1] (setting [6]) was 8.9 µM.
For the compound `NCC1O[C@H](OC2C(N)CC(N)C(OC3O[C@H](COc4ccccc4)C(O)C(N)[C@H]3O)[C@H]2O)C(O)C(O)[C@@H]1O` (some centres unmarked) [Compound K34], the inhibition at 15 µM in experiment [1] (setting [9]) was found to be 36 ± 3.9%; in experiment [1] (setting [10]), 36 ± 3.9%; in experiment [1] (setting [11]) it was 36 ± 3.9%; in experiment [2] (Table 3) it was 14.6 ± 4.3%; in experiment [2] (Table 6) it was 14.6 ± 4.3%. The inhibition at 50 µM in experiment [1] (setting [9]) was 46.7 ± 7.8%; in experiment [1] (setting [10]) it was 46.7 ± 7.8%; in experiment [1] (setting [11]) it was 46.7 ± 7.8%; in experiment [2] (Table 3), 69.4 ± 4.2%; in experiment [2] (Table 6), 69.4 ± 4.2%.
Consider `NCC1O[C@H](OC2C(N)CC(N)C(OC3O[C@H](COc4ccc([N+](=O)[O-])cc4)C(O)C(N)[C@H]3O)[C@H]2O)C(O)C(O)[C@@H]1O` (some centres unmarked) [Compound K36], for which the inhibition at 15 µM amounted to 36.5 ± 0.6% in experiment [1] (setting [9]); 36.5 ± 0.6% in experiment [1] (setting [10]); 36.5 ± 0.6% in experiment [1] (setting [11]); 35.9 ± 2.9% in experiment [2] (Table 3); 35.9 ± 2.9% in experiment [2] (Table 6). In addition, the inhibition at 50 µM was determined as 49.3 ± 2.2% in experiment [1] (setting [9]); 49.3 ± 2.2% in experiment [1] (setting [10]); 49.3 ± 2.2% in experiment [1] (setting [11]); 62.6 ± 9.2% in experiment [2] (Table 3); 62.6 ± 9.2% in experiment [2] (Table 6).
Turning to `NC[C@@H]1O[C@H](O[C@H]2[C@@H](O)[C@H](O[C@@H]3[C@@H](O)[C@H](N)C[C@H](N)[C@H]3O[C@H]3O[C@H](CO)[C@@H](O)[C@H](O)[C@H]3N)O[C@@H]2CO)[C@H](N)[C@@H](O)[C@@H]1O` [Paromomycin, reference compound], in experiment [1] (the 16th table), the “Cx43/Cx26 Selectivity” value was 0.21.

For the origin of these results see US12286452B2, “Amphiphilic aminoglycoside connexin hemichannel inhibitors” (Texas Tech University System, priority 2018, dated 2025).
